PMC6770581, “New Thalidomide-Resembling Dicarboximides Target ABC50 Protein and Show Antileukemic and Immunomodulatory Activities” (Biomolecules, 2019)

Legend:
[1] = test system: HeLa cells; conditions: 48 h, MTT, mean ± SD; cited from earlier work
[2] = test system: caspase 3 and 7; assay: Caspase-3/7 activity (Apo-ONE fluorescent assay) in MOLT-4 cells; type: cell-based, human; conditions: 5× IC50, 18 h, normalized to 1% DMSO
Description: Louis, MO). The induction of cell apoptosis was analyzed by Apo-ONE® Homogeneous Caspase-3/7 Assay (Promega, Madison, WI, USA). […] The fluorescence in each well was measured in triplicate (excitation at 485 nm, emission measured at 520 nm) using a microplate reader FLUOStar Omega (BMG-Labtech, Offenburg, Germany). For normalization of the data, the caspase activity in the control cells (exposed to 1% DMSO) was taken as 1.0. […] Luminescence was measured (in triplicate) using a microplate reader FLUOStar Omega. For normalization of the data, the caspase activity in the control cells (exposed to 1% DMSO) was taken as 1.0.

[3] = test system: MOLT-4 cells; assay: Annexin V/PI flow cytometry of apoptosis, MOLT-4; type: cell-based, human; conditions: MOLT-4, 3 h, 5× IC50 (3 45 µM, 6 20 µM, 5 100 µM)
Description: The phosphatidylserine on the extracellular side of cell membranes was quantified using an FITC Annexin V Apoptosis Detection Kit I (BD Pharmingen, San Diego, CA, USA) according to the manufacturer’s instruction. 10^6 cells were seeded on a 6-well plate (Nunc). […] The control cells were exposed to 1% DMSO or 1μM staurosporine. After treatment the cells were centrifuged at 700 rpm (120× g) for 5 min, washed twice with cold PBS and then resuspended in 1x binding buffer to a density of 10^6 cells/ml. 100 µL of the resuspended cells was stained in the dark with 5 μl of Annexin V-fluoroscein isothiocyanate (FITC) solution and 10 µL propidium iodide (PI) solution for 15 min at room temperature. The samples were then diluted with 400 μL of a binding buffer and within 1 h analyzed with a flow cytometer (BD FACSCalibur^TM, BD Biosciences, San Jose, CA, USA). After treatment, four populations of cells were assessed: (1) viable (neither apoptotic nor necrotic, Annexin V-FITC and PI negative), (2) apoptotic (Annexin V-FITC positive and PI negative), (3) late apoptotic (Annexin V-FITC and PI positive), and (4) necrotic (Annexin V-FITC negative and PI positive).

[4] = test system: MOLT-4 cells; assay: MTT cytotoxicity assay, MOLT-4; type: cell-based; conditions: Homo sapiens, 48 h, mean ± SD
Description: Human umbilical vein endothelial cells (purchased from Life Technologies, Carlsbad, CA, USA) were cultured according to the manufacturer’s instructions in Medium 200 supplemented with Low Serum Growth Supplement. 1 × 10^4 cells were seeded on each well on a 96-well plate (Nunc, Roskilde, Denmark). The HeLa (human cervix carcinoma, cat. #93021013), CFPAC (human pancreatic adenocarcinoma, cat. #91112501), K562 (chronic myelogenous leukemia, cat. #89121407), HL-60 (acute myelogenous leukemia, cat. #98070106), and MOLT-4 (Human acute T lymphoblastic leukemia, cat. #85011413) cells were purchased from European Collection of Authenticated Cell Cultures (ECACC). They were cultured in an RPMI 1640 medium supplemented with antibiotics (streptomycin, penicillin) and 10% fetal calf serum (20% for HL60), in a 5% CO2-95% air atmosphere. 7 × 10^3 cells were seeded on each well on a 96-well plate (Nunc). 24 hours later the cells were exposed to the test compounds. The aliquots of stock solutions of the test compounds (freshly prepared in DMSO) were added to the cell cultures to yield final concentrations of 1, 10^−1, 10^−2, 10^−3, 10^−4, and 10^−5 mM. The concentration of DMSO in the cell culture medium was 1%. The IC50 value (the concentration of a test compound required to reduce the cell survival fraction to 50% of the control) was calculated from a dose-response curve and used as a measure of cellular sensitivity to a given treatment. The IC50 values are given as means (± standard deviation (SD)) from 2 independent experiments with 4 technical replicates. The cytotoxicity of all compounds was determined by the MTT (3-(4,5-dimethylthiazol-2-yl)-2,5-diphenyltetrazolium bromide) assay (Sigma, St. Louis, MO, USA). Briefly, after 24 h or 48 h of incubation with a given compound, the cells were treated with the MTT reagent and incubation was continued for 2 h. MTT-formazan crystals were dissolved in 20% SDS and 50% DMF at pH 4.7 and VIS light absorption was measured at 570 and 650 nm on a microplate reader FLUOstar Omega (BMG Labtech, Offenburg, Germany). As a control (100% viability), cells grown in the presence of 1% DMSO were used.

Question: For `CN(C)CCN1C(=O)C2C(C1=O)C1(c3ccccc3)CC2(c2ccccc2)C(c2ccccc2)=C1c1ccccc1` (stereo not drawn) [Compound 6], which IC50 [1] is on record?
Answer: 1 ± 0.2 µM

Question: What about the “activation of caspase 3/7” value [2] of the same compound?
Answer: strong activation

Question: What about the apoptotic cells [3] of the same compound?
Answer: ~99%

Question: And the IC50 [4]?
Answer: 4 ± 0.2 µM

Question: For `CCC12C(=O)C(CC)(C(c3ccccc3)=C1c1ccccc1)C1C(=O)N(CCN3CCCCC3)C(=O)C12` (stereo not drawn) [Compound 3], which IC50 [1] is on record?
Answer: > 100 µM

Question: What about the “activation of caspase 3/7” value [2] of the same compound?
Answer: strong activation

Question: And the apoptotic cells [3]?
Answer: about 76%

Question: What about the IC50 [4] of the same compound?
Answer: 9 ± 0.6 µM

Question: With `CCC12C(=O)C(CC)(C(c3ccccc3)=C1c1ccccc1)C1C(=O)N(CC(O)CNC(C)C)C(=O)C12` (stereo not drawn) [Compound 5] as the compound, how does the IC50 [1] read?
Answer: > 100 µM

Question: And the “activation of caspase 3/7” value [2]?
Answer: strong activation

Question: What about the apoptotic cells [3] of the same compound?
Answer: ~78%

Question: What about the IC50 [4] of the same compound?
Answer: 20 ± 2.3 µM
